This note sets out measurements from ChEMBL document CHEMBL5532725, “SARS-CoV-2 Main Protease Inhibitors That Leverage Unique Interactions with the Solvent Exposed S3 Site of the Enzyme” (ACS Med Chem Lett, 2024).

Molecules are shown by their SMILES. pIC50: −log10 of the molar value.

The assay deals with Replicase polyprotein 1ab (Severe acute respiratory syndrome coronavirus 2, UniProt P0DTD1). The experiment in a line: Inhibition of SARS-CoV-2 MPro preincubated for 30 mins followed by substrate addition by fluorescence based assay.
As usually defined, the pIC50 is −log10 of the IC50, conventionally taken in molar units. Low values mean a high IC50, high ones a low IC50. In turn, `CC1(C)[C@@H]2[C@@H](C(=O)N[C@H](C=O)C[C@@H]3CCNC3=O)N(C(=O)C(c3ccc(Cl)cc3)c3ccc(Cl)cc3)C[C@@H]21` showed a pIC50 of 6.55.
`CC1(C)[C@@H]2[C@@H](C(=O)N[C@H](C=O)C[C@@H]3CCNC3=O)N(C(=O)C(Oc3ccc(Cl)cc3)Oc3ccc(Cl)cc3)C[C@@H]21` showed a pIC50 of 6.55.
On to `CC1(C)[C@@H]2[C@@H](C(=O)N[C@H](C=O)C[C@@H]3CCNC3=O)N(C(=O)OC(c3ccccc3)c3ccccc3)C[C@@H]21`, for which the pIC50 was 7.02. This pIC50 lies 0.47 log units higher than the previous one.
Turning to `CC1(C)[C@@H]2[C@@H](C(=O)N[C@H](C=O)C[C@@H]3CCNC3=O)N(C(=O)N(c3ccc(Cl)cc3)c3ccc(Cl)cc3)C[C@@H]21`, the pIC50 is 6.35. Against the preceding compound, the pIC50 is 0.67 log units lower.
For `CC1(C)[C@@H]2[C@@H](C(=O)N[C@H](C=O)C[C@@H]3CCNC3=O)N(C(=O)[C@H](CC3CCCCC3)NC(=O)OCc3ccccc3)C[C@@H]21`, the pIC50 is 6.60.
`CC1(C)[C@@H]2[C@@H](C(=O)N[C@H](C#N)C[C@@H]3CCNC3=O)N(C(=O)[C@@H](NC(=O)C(F)(F)F)c3ccc(Cl)cc3)C[C@@H]21`: the negative logarithm of the IC50 (pIC50) is 6.38. This pIC50 is 0.22 log units lower than that of the compound before.
`CC1(C)[C@@H]2[C@@H](C(=O)N[C@H](C=O)C[C@@H]3CCNC3=O)N(C(=O)OC(c3ccc(F)cc3)c3ccc(F)cc3)C[C@@H]21` had a pIC50 of 7.03. This pIC50 is 0.65 log units higher than that of the compound before.
